Experimental data reported in ChEMBL document CHEMBL1154225, “Design and synthesis of bile acid-based amino sterols as antimicrobial agents” (Bioorg Med Chem Lett, 2009).
Converted amounts (≈) assume the structure as drawn.

Columns and labels:
Type in all cases: functional, organism-based
Pseudomonas aeruginosa = experiment: Antibacterial activity against Pseudomonas aeruginosa ATCC BAA-427 after 24 hrs by NCCLS method
Staphylococcus aureus = experiment: Antibacterial activity against Staphylococcus aureus ATCC 25923 after 24 hrs by NCCLS method
Candida albicans = experiment: Antifungal activity against Candida albicans after 48 hrs by microbroth dilution technique
Cryptococcus neoformans = experiment: Antifungal activity against Cryptococcus neoformans after 72 hrs by microbroth dilution technique
Sporothrix schenckii = experiment: Antifungal activity against Sporothrix schenckii after 72 hrs by microbroth dilution technique
[1] = system: Trichophyton mentagrophytes; experiment: Antifungal activity against Trichophyton mentagrophytes after 96 hrs by microbroth dilution technique
Aspergillus fumigatus = experiment: Antifungal activity against Aspergillus fumigatus AF-27 after 72 hrs by microbroth dilution technique; details: AF-27, 72 h
Candida parapsilosis = experiment: Antifungal activity against Candida parapsilosis ATCC 22019 after 48 hrs by microbroth dilution technique; details: Lodderomyces parapsilosis, ATCC 22019, 48 h
Escherichia coli = experiment: Antibacterial activity against Escherichia coli ATCC 9637 after 24 hrs by NCCLS method
Klebsiella pneumoniae = experiment: Antibacterial activity against Klebsiella pneumoniae ATCC 27736 after 24 hrs by NCCLS method
[2] = Pseudomonas aeruginosa, ATCC BAA-427, 24 h
[3] = Escherichia coli, ATCC 9637, 24 h
[4] = Klebsiella pneumoniae, ATCC 27736, 24 h
[5] = Klebsiella pneumoniae, ATCC 27736, 24 h, read-out: IC50
[6] = Escherichia coli, ATCC 9637, 24 h, read-out: IC50
[7] = Pseudomonas aeruginosa, ATCC BAA-427, 24 h, read-out: IC50

For `COC(=O)CC[C@@H](C)[C@H]1CC[C@H]2[C@@H]3CC[C@@H]4C[C@H](O)CC[C@]4(C)[C@H]3C[C@H](O)[C@]12C` [METHYL DEOXYCHOLATE], the MIC (Pseudomonas aeruginosa; [2]) was greater than 50 µg/mL, the MIC (Staphylococcus aureus; ATCC 25923, 24 h) was greater than 50 µg/mL and the MIC (Candida albicans) was greater than 50 µg/mL. It also gave an MIC (Cryptococcus neoformans) greater than 50 µg/mL, an MIC (Sporothrix schenckii) greater than 50 µg/mL and an MIC [1] greater than 50 µg/mL. It also gave an MIC (Aspergillus fumigatus) greater than 50 µg/mL, an MIC (Candida parapsilosis) greater than 50 µg/mL and an MIC (Escherichia coli; [3]) greater than 50 µg/mL.
In the case of `COC(=O)CC[C@@H](C)[C@H]1CC[C@H]2[C@@H]3[C@H](O)C[C@@H]4C[C@](O)(CNCCN)CC[C@]4(C)[C@H]3C[C@H](O)[C@]12C`, the IC50 (Pseudomonas aeruginosa) is reported as “Not Active”, the MIC (Pseudomonas aeruginosa; [2]) is reported as 50 µg/mL (≈ 101 µM) and the IC50 (Staphylococcus aureus; ATCC 25923, 24 h) is reported as 4.12 µg/mL (≈ 8.33 µM). It also gave an MIC (Staphylococcus aureus; ATCC 25923, 24 h) of 6.25 µg/mL (≈ 12.6 µM), an MIC (Klebsiella pneumoniae; [4]) of 6.25 µg/mL (≈ 12.6 µM) and an IC50 (Klebsiella pneumoniae; [5]) of 4.68 µg/mL (≈ 9.46 µM). It also gave an IC50 (Candida albicans) of 24 µg/mL (≈ 48.6 µM), an MIC (Candida albicans) of 25 µg/mL (≈ 50.5 µM) and an IC50 (Cryptococcus neoformans) of 14.6 µg/mL (≈ 29.4 µM). The MIC (Cryptococcus neoformans) was 25 µg/mL (≈ 50.5 µM), the IC50 (Sporothrix schenckii) was 18.3 µg/mL (≈ 37 µM) and the MIC (Sporothrix schenckii) was 25 µg/mL (≈ 50.5 µM). The IC50 [1] was 6.25 µg/mL (≈ 12.6 µM), the MIC [1] was 6.25 µg/mL (≈ 12.6 µM) and the IC50 (Aspergillus fumigatus) was 50 µg/mL (≈ 101 µM). It also gave an MIC (Aspergillus fumigatus) of 50 µg/mL (≈ 101 µM), an IC50 (Candida parapsilosis) of 16.4 µg/mL (≈ 33.2 µM) and an MIC (Candida parapsilosis) of 25 µg/mL (≈ 50.5 µM). It also gave an MIC (Escherichia coli; [3]) of 25 µg/mL (≈ 50.5 µM) and an IC50 (Escherichia coli; [6]) of 17.2 µg/mL (≈ 34.8 µM).
In the case of `OC(Cn1cncn1)(Cn1cncn1)c1ccc(F)cc1F` [FLUCONAZOLE], the MIC (Candida albicans) is reported as 0.5 µg/mL (≈ 1.63 µM), the MIC (Cryptococcus neoformans) is reported as 1.9 µg/mL (≈ 6.2 µM) and the MIC (Sporothrix schenckii) is reported as 2 µg/mL (≈ 6.53 µM). For the same molecule, the MIC [1] was 1 µg/mL (≈ 3.27 µM), the MIC (Aspergillus fumigatus) was 2 µg/mL (≈ 6.53 µM) and the MIC (Candida parapsilosis) was 1 µg/mL (≈ 3.27 µM).
`COC(=O)CC[C@@H](C)[C@H]1CC[C@H]2[C@@H]3[C@H](O)C[C@@H]4C[C@H](O)CC[C@]4(C)[C@H]3C[C@H](O)[C@]12C` [CHOLIC ACID, METHYL ESTER] showed an MIC (Pseudomonas aeruginosa; [2]) greater than 50 µg/mL, an MIC (Staphylococcus aureus; ATCC 25923, 24 h) greater than 50 µg/mL and an MIC (Candida albicans) greater than 50 µg/mL. It also gave an MIC (Cryptococcus neoformans) greater than 50 µg/mL, an MIC (Sporothrix schenckii) greater than 50 µg/mL and an MIC [1] greater than 50 µg/mL. The MIC (Aspergillus fumigatus) was greater than 50 µg/mL, the MIC (Candida parapsilosis) was greater than 50 µg/mL and the MIC (Escherichia coli; [3]) was greater than 50 µg/mL.
In the case of `COC(=O)CC[C@@H](C)[C@H]1CC[C@H]2[C@@H]3[C@H](O)C[C@@H]4C[C@](O)(CN=[N+]=[N-])CC[C@]4(C)[C@H]3C[C@H](O)[C@]12C`, the MIC (Pseudomonas aeruginosa; [2]) is reported as greater than 50 µg/mL, the MIC (Staphylococcus aureus; ATCC 25923, 24 h) is reported as greater than 50 µg/mL and the MIC (Candida albicans) is reported as greater than 50 µg/mL. The MIC (Cryptococcus neoformans) was greater than 50 µg/mL, the MIC (Sporothrix schenckii) was greater than 50 µg/mL and the MIC [1] was greater than 50 µg/mL. The MIC (Aspergillus fumigatus) was greater than 50 µg/mL, the MIC (Candida parapsilosis) was greater than 50 µg/mL and the MIC (Escherichia coli; [3]) was greater than 50 µg/mL.
With `COC(=O)CC[C@@H](C)[C@H]1CC[C@H]2[C@@H]3CC[C@@H]4C[C@](O)(CNCCN)CC[C@]4(C)[C@H]3C[C@H](O)[C@]12C` the IC50 (Pseudomonas aeruginosa) was “Not Active”, the MIC (Pseudomonas aeruginosa; [2]) was 50 µg/mL (≈ 104 µM) and the IC50 (Staphylococcus aureus; ATCC 25923, 24 h) was 5.14 µg/mL (≈ 10.7 µM). It also gave an MIC (Staphylococcus aureus; ATCC 25923, 24 h) of 6.25 µg/mL (≈ 13.1 µM), an MIC (Klebsiella pneumoniae; [4]) of 6.25 µg/mL (≈ 13.1 µM) and an IC50 (Klebsiella pneumoniae; [5]) of 5.21 µg/mL (≈ 10.9 µM). For the same molecule, the IC50 (Candida albicans) was 25 µg/mL (≈ 52.3 µM), the MIC (Candida albicans) was greater than 50 µg/mL and the IC50 (Cryptococcus neoformans) was 17.2 µg/mL (≈ 36 µM). It also gave an MIC (Cryptococcus neoformans) of 25 µg/mL (≈ 52.2 µM), an IC50 (Sporothrix schenckii) of 3.36 µg/mL (≈ 7.02 µM) and an MIC (Sporothrix schenckii) of 12.5 µg/mL (≈ 26.1 µM). It also gave an IC50 [1] of 6.25 µg/mL (≈ 13.1 µM), an MIC [1] of 6.25 µg/mL (≈ 13.1 µM) and an IC50 (Aspergillus fumigatus) of 8.14 µg/mL (≈ 17 µM). The MIC (Aspergillus fumigatus) was 12.5 µg/mL (≈ 26.1 µM), the IC50 (Candida parapsilosis) was 18.4 µg/mL (≈ 38.4 µM) and the MIC (Candida parapsilosis) was 25 µg/mL (≈ 52.2 µM). For the same molecule, the IC50 (Escherichia coli) was “Not Active” and the MIC (Escherichia coli; [3]) was 50 µg/mL (≈ 104 µM).
For `COC(=O)CC[C@@H](C)[C@H]1CC[C@H]2[C@@H]3CC[C@@H]4C[C@](O)(CN)CC[C@]4(C)[C@H]3C[C@H](O)[C@]12C`, the MIC (Pseudomonas aeruginosa; [2]) was greater than 50 µg/mL, the IC50 (Pseudomonas aeruginosa; [7]) was greater than 50 µg/mL and the IC50 (Staphylococcus aureus; ATCC 25923, 24 h) was 14.6 µg/mL (≈ 33.4 µM). For the same molecule, the MIC (Staphylococcus aureus; ATCC 25923, 24 h) was 25 µg/mL (≈ 57.4 µM), the IC50 (Klebsiella pneumoniae) was “Not Active” and the MIC (Klebsiella pneumoniae; [4]) was 50 µg/mL (≈ 115 µM). For the same molecule, the IC50 (Candida albicans) was 50 µg/mL (≈ 115 µM), the MIC (Candida albicans) was 50 µg/mL (≈ 115 µM) and the IC50 (Cryptococcus neoformans) was 50 µg/mL (≈ 115 µM). For the same molecule, the MIC (Cryptococcus neoformans) was 50 µg/mL (≈ 115 µM), the IC50 (Sporothrix schenckii) was 12.6 µg/mL (≈ 29 µM) and the MIC (Sporothrix schenckii) was 25 µg/mL (≈ 57.4 µM). For the same molecule, the IC50 [1] was 24.9 µg/mL (≈ 57.1 µM), the MIC [1] was 25 µg/mL (≈ 57.4 µM) and the IC50 (Aspergillus fumigatus) was 50 µg/mL (≈ 115 µM). For the same molecule, the MIC (Aspergillus fumigatus) was 50 µg/mL (≈ 115 µM), the IC50 (Candida parapsilosis) was greater than 50 µg/mL and the MIC (Candida parapsilosis) was greater than 50 µg/mL. The MIC (Escherichia coli; [3]) was greater than 50 µg/mL and the IC50 (Escherichia coli; [6]) was greater than 50 µg/mL.
Molecule `COC(=O)CC[C@@H](C)[C@H]1CC[C@H]2[C@@H]3CC[C@@H]4C[C@](O)(CN=[N+]=[N-])CC[C@]4(C)[C@H]3C[C@H](O)[C@]12C` has an MIC (Pseudomonas aeruginosa; [2]) greater than 50 µg/mL, an MIC (Staphylococcus aureus; ATCC 25923, 24 h) greater than 50 µg/mL and an MIC (Candida albicans) greater than 50 µg/mL. For the same molecule, the MIC (Cryptococcus neoformans) was greater than 50 µg/mL, the MIC (Sporothrix schenckii) was greater than 50 µg/mL and the MIC [1] was greater than 50 µg/mL. For the same molecule, the MIC (Aspergillus fumigatus) was greater than 50 µg/mL, the MIC (Candida parapsilosis) was greater than 50 µg/mL and the MIC (Escherichia coli; [3]) was greater than 50 µg/mL.
With `COC(=O)CC[C@@H](C)[C@H]1CC[C@H]2[C@@H]3[C@H](O)C[C@@H]4C[C@](O)(CN)CC[C@]4(C)[C@H]3C[C@H](O)[C@]12C` the MIC (Pseudomonas aeruginosa; [2]) was greater than 50 µg/mL, the IC50 (Pseudomonas aeruginosa; [7]) was greater than 50 µg/mL and the IC50 (Staphylococcus aureus; ATCC 25923, 24 h) was 18.4 µg/mL (≈ 40.8 µM). The MIC (Staphylococcus aureus; ATCC 25923, 24 h) was 25 µg/mL (≈ 55.4 µM), the MIC (Klebsiella pneumoniae; [4]) was 25 µg/mL (≈ 55.4 µM) and the IC50 (Klebsiella pneumoniae; [5]) was 18.4 µg/mL (≈ 40.8 µM). For the same molecule, the IC50 (Candida albicans) was greater than 50 µg/mL, the MIC (Candida albicans) was 50 µg/mL (≈ 111 µM) and the IC50 (Cryptococcus neoformans) was greater than 50 µg/mL. The MIC (Cryptococcus neoformans) was greater than 50 µg/mL, the IC50 (Sporothrix schenckii) was 50 µg/mL (≈ 111 µM) and the MIC (Sporothrix schenckii) was 50 µg/mL (≈ 111 µM). For the same molecule, the IC50 [1] was 21.4 µg/mL (≈ 47.4 µM), the MIC [1] was 25 µg/mL (≈ 55.4 µM) and the IC50 (Aspergillus fumigatus) was greater than 50 µg/mL. For the same molecule, the MIC (Aspergillus fumigatus) was greater than 50 µg/mL, the IC50 (Candida parapsilosis) was greater than 50 µg/mL and the MIC (Candida parapsilosis) was greater than 50 µg/mL. For the same molecule, the MIC (Escherichia coli; [3]) was greater than 50 µg/mL and the IC50 (Escherichia coli; [6]) was greater than 50 µg/mL.
With GENTAMICIN the MIC (Pseudomonas aeruginosa) was 25 µg/mL, the MIC (Staphylococcus aureus) was 6.25 µg/mL and the MIC (Klebsiella pneumoniae) was 0.78 µg/mL. For the same molecule, the MIC (Escherichia coli) was 0.18 µg/mL.
